# Data published in patent US6355799B1, “Substituted benzene compounds, process for their preparation, and herbicidal and defoliant compositions containing them” (ISK Americas Incorporated, priority 1997, dated 2002).
# How the values were obtained:
# Format in all cases: in vivo
# [1] = system: field corn (Zea mays L., var. Dekalb 535, CORN); assay: Pre-emerge test, crop safety; settings: rated 14 days after application, 0 = no damage, 100 = complete death
# Outline: (§1)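 Visual ratings on a 0-100 scale (0 no damage, 100 all plants dead) were taken at 14 days after treatment. Rates of 15-1000 g ai/ha in acetone, 187 l/ha, were sprayed onto soil one day after planting (pre-emerge) or onto 2-3 leaf plants with 0.25% v/v surfactant (post-emerge).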
# [2] = system: upland rice (Oryza sp., var. Tebonnet, RICE); assay: Pre-emerge test, crop safety; settings: rated 14 days after application, 0 = no damage, 100 = complete death
# Outline: as §1
# [3] = system: sicklepod (Cassia obtusifolia, CASOB); assay: Pre-emerge test, greenhouse herbicide activity screening; settings: rated 14 days after application, 0 = no damage, 100 = complete death
# Outline: (§2)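 Compounds in acetone were track-sprayed at 15-1000 g ai/ha (187 l/ha) on sandy loam pots: pre-emerge one day after seeding, post-emerge at 2-3 leaf stage with 0.25% v/v non-ionic surfactant. Phytotoxicity was rated 14 days later on a 0 (no damage) to 100 (complete death) scale.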
# [4] = system: johnsongrass (Sorghum halepense, SORHA); assay: as above; settings: rated 14 days after application, 0 = no damage, 100 = complete death
# Outline: as §2
# [5] = system: velvetleaf (Abutilon theophrasti, ABUTH); assay: as above; settings: rated 14 days after application, 0 = no damage, 100 = complete death
# Outline: as §2
# [6] = system: common ragweed (Ambrosia artemisizfolia L., AMBEL); assay: as above; settings: rated 14 days after application, 0 = no damage, 100 = complete death
# Outline: as §2
# [7] = system: lambsquarters (Chenopodium album, CHEAL); assay: as above; settings: rated 14 days after application, 0 = no damage, 100 = complete death
# Outline: as §2
# [8] = system: ivyleaf morningglory (Ipomoea hederacea, IPOHE); assay: as above; settings: rated 14 days after application, 0 = no damage, 100 = complete death
# Outline: as §2
# [9] = system: barnyardgrass (Echinochloa crus-galli, ECHCG); assay: as above; settings: rated 14 days after application, 0 = no damage, 100 = complete death
# Outline: as §2
# [10] = system: green foxtail (Setaria viridis, SETVI); assay: as above; settings: rated 14 days after application, 0 = no damage, 100 = complete death
# Outline: as §2
# [11] = system: large crabgrass (Digitaria sanguinalis, DIGSA); assay: as above; settings: rated 14 days after application, 0 = no damage, 100 = complete death
# Outline: as §2
# [12] = system: redroot pigweed (Amaranthus retroflexus, AMARE); assay: Post-emerge test, greenhouse herbicide activity screening; settings: post-emerge, 14 days after application, rating scale 0-100
# Outline: (§3)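 Compounds in acetone were track-sprayed at 15–1000 g ai/ha: pre-emergence onto soil sown the previous day, then top-watered to incorporate and later bottom-watered; post-emergence onto 2–3 leaf plants with 0.25% v/v surfactant, bottom-watered only. Ratings on a 0–100 phytotoxicity scale were taken at day 14.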
# [13] = system: sicklepod (Cassia obtusifolia, CASOB); assay: as above; settings: post-emerge, 14 days after application, rating scale 0-100
# Outline: as §3
# [14] = system: johnsongrass (Sorghum halepense, SORHA); assay: as above; settings: post-emerge, 14 days after application, rating scale 0-100
# Outline: as §3
# [15] = system: velvetleaf (Abutilon theophrasti, ABUTH); assay: as above; settings: post-emerge, 14 days after application, rating scale 0-100
# Outline: as §3
# [16] = system: common ragweed (Ambrosia artemisizfolia L., AMBEL); assay: as above; settings: post-emerge, 14 days after application, rating scale 0-100
# Outline: as §3
# [17] = system: lambsquarters (Chenopodium album, CHEAL); assay: as above; settings: post-emerge, 14 days after application, rating scale 0-100
# Outline: as §3
# [18] = system: ivyleaf morningglory (Ipomoea hederacea, IPOHE); assay: as above; settings: post-emerge, 14 days after application, rating scale 0-100
# Outline: as §3
# [19] = system: barnyardgrass (Echinochloa crus-galli, ECHCG); assay: as above; settings: post-emerge, 14 days after application, rating scale 0-100
# Outline: as §3
# [20] = system: green foxtail (Setaria viridis, SETVI); assay: as above; settings: post-emerge, 14 days after application, rating scale 0-100
# Outline: as §3
# [21] = system: large crabgrass (Digitaria sanguinalis, DIGSA); assay: as above; settings: post-emerge, 14 days after application, rating scale 0-100
# Outline: as §3
# [22] = system: redroot pigweed (Amaranthus retroflexus, AMARE); assay: Pre-emerge test, greenhouse herbicide activity screening; settings: rated 14 days after application, 0 = no damage, 100 = complete death
# Outline: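 Compounds in acetone were track-sprayed at 187 l/ha, 15–1000 g ai/ha, onto sandy loam pots. Pre-emerge seeds were sown one day before spraying, with surface watering afterwards. Post-emerge plants were at the 2–3 leaf stage and sprayed with 0.25% v/v non-ionic surfactant. Injury was rated 0–100 at 14 days.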
# [23] = system: field corn (Zea mays L., var. Dekalb 535, CORN); assay: Post-emerge test, crop safety; settings: post-emerge, 14 days after application, rating scale 0-100
# Outline: as §2
# [24] = system: upland rice (Oryza sp., var. Tebonnet, RICE); assay: Post-emerge test, crop safety; settings: post-emerge, 14 days after application, rating scale 0-100
# Outline: as §2
compound,measurement,setting,value
COc1c(Cl)cc(F)c(-n2c(=O)cc(C(F)(F)F)n(C)c2=O)c1NC(=O)c1cccc(Cl)c1 [2-54],"Pre-emerge phytotoxicity rating (0-100), crop damage, CORN",[1]; 63 g ai/ha,90
same,"Pre-emerge phytotoxicity rating (0-100), crop damage, CORN",[1]; 250 g ai/ha,98
same,"Pre-emerge phytotoxicity rating (0-100), crop damage, RICE",[2]; 63 g ai/ha,70
same,"Pre-emerge phytotoxicity rating (0-100), crop damage, RICE",[2]; 250 g ai/ha,90
same,"Pre-emerge Herbicidal Activity, phytotoxicity rating (0-100), CASOB",[3]; 63 g ai/ha,100
same,"Pre-emerge Herbicidal Activity, phytotoxicity rating (0-100), CASOB",[3]; 250 g ai/ha,100
same,"Pre-emerge Herbicidal Activity, phytotoxicity rating (0-100), SORHA",[4]; 63 g ai/ha,90
same,"Pre-emerge Herbicidal Activity, phytotoxicity rating (0-100), SORHA",[4]; 250 g ai/ha,100
same,"Pre-emerge Herbicidal Activity, phytotoxicity rating (0-100), ABUTH",[5]; 63 g ai/ha,100
same,"Pre-emerge Herbicidal Activity, phytotoxicity rating (0-100), ABUTH",[5]; 250 g ai/ha,100
same,"Pre-emerge Herbicidal Activity, phytotoxicity rating (0-100), AMBEL",[6]; 63 g ai/ha,100
same,"Pre-emerge Herbicidal Activity, phytotoxicity rating (0-100), AMBEL",[6]; 250 g ai/ha,100
same,"Pre-emerge Herbicidal Activity, phytotoxicity rating (0-100), CHEAL",[7]; 63 g ai/ha,100
same,"Pre-emerge Herbicidal Activity, phytotoxicity rating (0-100), CHEAL",[7]; 250 g ai/ha,100
same,"Pre-emerge Herbicidal Activity, phytotoxicity rating (0-100), IPOHE",[8]; 63 g ai/ha,85
same,"Pre-emerge Herbicidal Activity, phytotoxicity rating (0-100), IPOHE",[8]; 250 g ai/ha,100
same,"Pre-emerge Herbicidal Activity, phytotoxicity rating (0-100), ECHCG",[9]; 63 g ai/ha,90
same,"Pre-emerge Herbicidal Activity, phytotoxicity rating (0-100), ECHCG",[9]; 250 g ai/ha,100
same,"Pre-emerge Herbicidal Activity, phytotoxicity rating (0-100), SETVI",[10]; 63 g ai/ha,100
same,"Pre-emerge Herbicidal Activity, phytotoxicity rating (0-100), SETVI",[10]; 250 g ai/ha,100
same,"Pre-emerge Herbicidal Activity, phytotoxicity rating (0-100), DIGSA",[11]; 63 g ai/ha,100
same,"Pre-emerge Herbicidal Activity, phytotoxicity rating (0-100), DIGSA",[11]; 250 g ai/ha,100
same,phytotoxicity rating AMARE,[12]; 63 g ai/ha,100
same,phytotoxicity rating AMARE,[12]; 250 g ai/ha,100
same,phytotoxicity rating CASOB,[13]; 63 g ai/ha,90
same,phytotoxicity rating CASOB,[13]; 250 g ai/ha,100
same,phytotoxicity rating SORHA,[14]; 63 g ai/ha,50
same,phytotoxicity rating SORHA,[14]; 250 g ai/ha,80
same,phytotoxicity rating ABUTH,[15]; 63 g ai/ha,100
same,phytotoxicity rating ABUTH,[15]; 250 g ai/ha,100
same,phytotoxicity rating AMBEL,[16]; 63 g ai/ha,90
same,phytotoxicity rating AMBEL,[16]; 250 g ai/ha,100
same,phytotoxicity rating CHEAL,[17]; 63 g ai/ha,100
same,phytotoxicity rating CHEAL,[17]; 250 g ai/ha,100
same,phytotoxicity rating IPOHE,[18]; 63 g ai/ha,100
same,phytotoxicity rating IPOHE,[18]; 250 g ai/ha,100
same,phytotoxicity rating ECHCG,[19]; 63 g ai/ha,20
same,phytotoxicity rating ECHCG,[19]; 250 g ai/ha,90
same,phytotoxicity rating SETVI,[20]; 63 g ai/ha,10
same,phytotoxicity rating SETVI,[20]; 250 g ai/ha,50
same,phytotoxicity rating DIGSA,[21]; 63 g ai/ha,10
same,phytotoxicity rating DIGSA,[21]; 250 g ai/ha,20
same,"Pre-emerge Herbicidal Activity, phytotoxicity rating (0-100), AMARE",[22]; 63 g ai/ha,100
same,"Pre-emerge Herbicidal Activity, phytotoxicity rating (0-100), AMARE",[22]; 250 g ai/ha,100
same,phytotoxicity rating CORN,[23]; 63 g ai/ha,80
same,phytotoxicity rating CORN,[23]; 250 g ai/ha,80
same,phytotoxicity rating RICE,[24]; 63 g ai/ha,90
same,phytotoxicity rating RICE,[24]; 250 g ai/ha,95
COc1c(Cl)cc(F)c(-n2c(=O)cc(C(F)(F)F)n(C)c2=O)c1NC(=O)c1ccc(Cl)cc1 [2-56],"Pre-emerge phytotoxicity rating (0-100), crop damage, CORN",[1]; 63 g ai/ha,80
same,"Pre-emerge phytotoxicity rating (0-100), crop damage, CORN",[1]; 250 g ai/ha,95
same,"Pre-emerge phytotoxicity rating (0-100), crop damage, RICE",[2]; 63 g ai/ha,30
same,"Pre-emerge phytotoxicity rating (0-100), crop damage, RICE",[2]; 250 g ai/ha,95
same,"Pre-emerge Herbicidal Activity, phytotoxicity rating (0-100), CASOB",[3]; 63 g ai/ha,100
same,"Pre-emerge Herbicidal Activity, phytotoxicity rating (0-100), CASOB",[3]; 250 g ai/ha,100
same,"Pre-emerge Herbicidal Activity, phytotoxicity rating (0-100), SORHA",[4]; 63 g ai/ha,99
same,"Pre-emerge Herbicidal Activity, phytotoxicity rating (0-100), SORHA",[4]; 250 g ai/ha,100
same,"Pre-emerge Herbicidal Activity, phytotoxicity rating (0-100), ABUTH",[5]; 63 g ai/ha,100
same,"Pre-emerge Herbicidal Activity, phytotoxicity rating (0-100), ABUTH",[5]; 250 g ai/ha,100
same,"Pre-emerge Herbicidal Activity, phytotoxicity rating (0-100), AMBEL",[6]; 63 g ai/ha,100
same,"Pre-emerge Herbicidal Activity, phytotoxicity rating (0-100), AMBEL",[6]; 250 g ai/ha,100
same,"Pre-emerge Herbicidal Activity, phytotoxicity rating (0-100), CHEAL",[7]; 63 g ai/ha,100
same,"Pre-emerge Herbicidal Activity, phytotoxicity rating (0-100), CHEAL",[7]; 250 g ai/ha,100
same,"Pre-emerge Herbicidal Activity, phytotoxicity rating (0-100), IPOHE",[8]; 63 g ai/ha,100
same,"Pre-emerge Herbicidal Activity, phytotoxicity rating (0-100), IPOHE",[8]; 250 g ai/ha,100
same,"Pre-emerge Herbicidal Activity, phytotoxicity rating (0-100), ECHCG",[9]; 63 g ai/ha,90
same,"Pre-emerge Herbicidal Activity, phytotoxicity rating (0-100), ECHCG",[9]; 250 g ai/ha,100
same,"Pre-emerge Herbicidal Activity, phytotoxicity rating (0-100), SETVI",[10]; 63 g ai/ha,100
same,"Pre-emerge Herbicidal Activity, phytotoxicity rating (0-100), SETVI",[10]; 250 g ai/ha,100
same,"Pre-emerge Herbicidal Activity, phytotoxicity rating (0-100), DIGSA",[11]; 63 g ai/ha,100
same,"Pre-emerge Herbicidal Activity, phytotoxicity rating (0-100), DIGSA",[11]; 250 g ai/ha,100
same,phytotoxicity rating AMARE,[12]; 63 g ai/ha,100
same,phytotoxicity rating AMARE,[12]; 250 g ai/ha,100
same,phytotoxicity rating CASOB,[13]; 63 g ai/ha,100
same,phytotoxicity rating CASOB,[13]; 250 g ai/ha,100
same,phytotoxicity rating SORHA,[14]; 63 g ai/ha,0
same,phytotoxicity rating SORHA,[14]; 250 g ai/ha,60
same,phytotoxicity rating ABUTH,[15]; 63 g ai/ha,100
same,phytotoxicity rating ABUTH,[15]; 250 g ai/ha,100
same,phytotoxicity rating AMBEL,[16]; 63 g ai/ha,70
same,phytotoxicity rating AMBEL,[16]; 250 g ai/ha,100
same,phytotoxicity rating CHEAL,[17]; 63 g ai/ha,100
same,phytotoxicity rating CHEAL,[17]; 250 g ai/ha,100
same,phytotoxicity rating IPOHE,[18]; 63 g ai/ha,100
same,phytotoxicity rating IPOHE,[18]; 250 g ai/ha,100
same,phytotoxicity rating ECHCG,[19]; 63 g ai/ha,0
same,phytotoxicity rating ECHCG,[19]; 250 g ai/ha,50
same,phytotoxicity rating SETVI,[20]; 63 g ai/ha,80
same,phytotoxicity rating SETVI,[20]; 250 g ai/ha,60
same,phytotoxicity rating DIGSA,[21]; 63 g ai/ha,0
same,phytotoxicity rating DIGSA,[21]; 250 g ai/ha,30
same,"Pre-emerge Herbicidal Activity, phytotoxicity rating (0-100), AMARE",[22]; 63 g ai/ha,100
same,"Pre-emerge Herbicidal Activity, phytotoxicity rating (0-100), AMARE",[22]; 250 g ai/ha,100
same,phytotoxicity rating CORN,[23]; 63 g ai/ha,30
same,phytotoxicity rating CORN,[23]; 250 g ai/ha,80
same,phytotoxicity rating RICE,[24]; 63 g ai/ha,45
same,phytotoxicity rating RICE,[24]; 250 g ai/ha,90
